Source: patent US6525001B1, “Substituted pyrimidine and pyridine herbicides” (Mid-American Commercialization Corporation, priority 1997, dated 2003)

Key:
Test in all cases: Test B pre-/postemergence
Assay type in all cases: in vivo
Parameters in all cases: key: 0 is no effect; 10 is complete control
corn (Zea mays) = test system: corn (Zea mays)
In short: (§1)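 Compounds in a surfactant-containing, non-phytotoxic solvent blend are applied to freshly planted seed (preemergence) and, concurrently, to seedlings of 2 to 18 cm at 1–4 leaves (postemergence). Plants stay in the greenhouse twelve to sixteen days and are then scored visually from 0 (no effect) to 10 (complete control).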

[1] = test system: velvetleaf (Abutilon theophrasti)
In short: as §1

[2] = test system: cocklebur (Xanthium strumarium)
In short: as §1

[3] = test system: momingglory (Ipomoea hederacea)
In short: as §1

[4] = test system: crabgrass (Digitaria sanguinalis)
In short: as §1

[5] = test system: sugar beet (Beta vulgaris)
In short: as §1

[6] = test system: purple nutsedge (Cyperus rotundus)
In short: as §1

wild oat (Avena fatua) = test system: wild oat (Avena fatua)
In short: as §1

[7] = test system: broadleaf signalgrass (Brachiaria decumbens)
In short: as §1

[8] = test system: blackgrass (Alopecurus myosuroides)
In short: as §1

[9] = test system: pigweed (Amaranthus retroflexus)
In short: as §1

[10] = test system: wheat (Triticum aestivum)
In short: as §1

soybean (Glycine max) = test system: soybean (Glycine max)
In short: as §1

[11] = test system: giant foxtail (Setaria faberii)
In short: as §1

[12] = Preemergence, Rate 62 g/ha, scale of 0 to 10

Structure (SMILES): Cc1cnc(-n2cnc(C(F)(F)F)n2)nc1C(=O)c1cccc(OC(F)(F)F)c1 [Compound 64]
- Plant response rating, Corn (corn (Zea mays); [12]): 3
- Corn plant response rating (corn (Zea mays); Rate 62 g/ha, Postemergence): 1
- Corn plant response rating (corn (Zea mays); Rate 125 g/ha, Postemergence): 3
- Plant response rating, Corn (corn (Zea mays); Rate 125 g/ha, Preemergence): 3
- Plant response rating, Corn (corn (Zea mays); Rate 250 g/ha, Postemergence): 4
- Plant response rating, Corn (corn (Zea mays); Rate 250 g/ha, Preemergence): 4
- Plant response rating, Corn (corn (Zea mays); Rate 500 g/ha, Postemergence): 5
- Plant response rating, Corn (corn (Zea mays); Rate 500 g/ha, Preemergence): 4
- Plant response rating, Velvetleaf [1, 12]: 4
- Velvetleaf plant response rating ([1]; Rate 62 g/ha, Postemergence): 2
- Velvetleaf plant response rating ([1]; Rate 125 g/ha, Postemergence): 7
- Plant response rating, Velvetleaf ([1]; Rate 125 g/ha, Preemergence): 6
- Plant response rating, Velvetleaf ([1]; Rate 250 g/ha, Postemergence): 8
- Plant response rating, Velvetleaf ([1]; Rate 250 g/ha, Preemergence): 6
- Plant response rating, Velvetleaf ([1]; Rate 500 g/ha, Postemergence): 9
- Plant response rating, Velvetleaf ([1]; Rate 500 g/ha, Preemergence): 10
- Plant response rating, Cocklebur [2, 12]: 1
- Cocklebur plant response rating ([2]; Rate 62 g/ha, Postemergence): 6
- Cocklebur plant response rating ([2]; Rate 125 g/ha, Postemergence): 7
- Plant response rating, Cocklebur ([2]; Rate 125 g/ha, Preemergence): 1
- Plant response rating, Cocklebur ([2]; Rate 250 g/ha, Postemergence): 7
- Plant response rating, Cocklebur ([2]; Rate 500 g/ha, Postemergence): 9
- Plant response rating, Cocklebur ([2]; Rate 500 g/ha, Preemergence): 7
- Plant response rating, Morningglory [3, 12]: 4
- Morningglory plant response rating ([3]; Rate 62 g/ha, Postemergence): 2
- Morningglory plant response rating ([3]; Rate 125 g/ha, Postemergence): 8
- Plant response rating, Morningglory ([3]; Rate 125 g/ha, Preemergence): 10
- Plant response rating, Morningglory ([3]; Rate 250 g/ha, Postemergence): 8
- Plant response rating, Morningglory ([3]; Rate 250 g/ha, Preemergence): 10
- Plant response rating, Morningglory ([3]; Rate 500 g/ha, Postemergence): 8
- Plant response rating, Morningglory ([3]; Rate 500 g/ha, Preemergence): 10
- Plant response rating, Crabgrass [4, 12]: 9
- Crabgrass plant response rating ([4]; Rate 62 g/ha, Postemergence): 4
- Crabgrass plant response rating ([4]; Rate 125 g/ha, Postemergence): 5
- Plant response rating, Crabgrass ([4]; Rate 125 g/ha, Preemergence): 10
- Plant response rating, Crabgrass ([4]; Rate 250 g/ha, Postemergence): 9
- Plant response rating, Crabgrass ([4]; Rate 250 g/ha, Preemergence): 10
- Plant response rating, Crabgrass ([4]; Rate 500 g/ha, Postemergence): 9
- Plant response rating, Crabgrass ([4]; Rate 500 g/ha, Preemergence): 10
- Plant response rating, Sugarbeets [5, 12]: 9
- Sugarbeets plant response rating ([5]; Rate 62 g/ha, Postemergence): 9
- Sugarbeets plant response rating ([5]; Rate 125 g/ha, Postemergence): 10
- Plant response rating, Sugarbeets ([5]; Rate 125 g/ha, Preemergence): 10
- Plant response rating, Sugarbeets ([5]; Rate 250 g/ha, Postemergence): 10
- Plant response rating, Sugarbeets ([5]; Rate 250 g/ha, Preemergence): 10
- Plant response rating, Sugarbeets ([5]; Rate 500 g/ha, Postemergence): 10
- Plant response rating, Sugarbeets ([5]; Rate 500 g/ha, Preemergence): 10
- Plant response rating, Nutsedge [6, 12]: 0
- Nutsedge plant response rating ([6]; Rate 62 g/ha, Postemergence): 0
- Nutsedge plant response rating ([6]; Rate 125 g/ha, Postemergence): 0
- Plant response rating, Nutsedge ([6]; Rate 250 g/ha, Postemergence): 0
- Plant response rating, Nutsedge ([6]; Rate 500 g/ha, Postemergence): 2
- Plant response rating, Nutsedge ([6]; Rate 500 g/ha, Preemergence): 2
- Plant response rating, Wild oats (wild oat (Avena fatua); [12]): 3
- Wild oats plant response rating (wild oat (Avena fatua); Rate 62 g/ha, Postemergence): 3
- Wild oats plant response rating (wild oat (Avena fatua); Rate 125 g/ha, Postemergence): 4
- Plant response rating, Wild oats (wild oat (Avena fatua); Rate 125 g/ha, Preemergence): 4
- Plant response rating, Wild oats (wild oat (Avena fatua); Rate 250 g/ha, Postemergence): 5
- Plant response rating, Wild oats (wild oat (Avena fatua); Rate 250 g/ha, Preemergence): 5
- Plant response rating, Wild oats (wild oat (Avena fatua); Rate 500 g/ha, Postemergence): 7
- Plant response rating, Wild oats (wild oat (Avena fatua); Rate 500 g/ha, Preemergence): 9
- B. signalgrass plant response rating ([7]; Rate 62 g/ha, Postemergence): 4
- B. signalgrass plant response rating ([7]; Rate 62 g/ha, Preemergence): 8
- B. signalgrass plant response rating ([7]; Rate 125 g/ha, Postemergence): 5
- Plant response rating, B. signalgrass ([7]; Rate 125 g/ha, Preemergence): 9
- Plant response rating, B. signalgrass ([7]; Rate 250 g/ha, Postemergence): 6
- Plant response rating, B. signalgrass ([7]; Rate 250 g/ha, Preemergence): 10
- Plant response rating, B. signalgrass ([7]; Rate 500 g/ha, Postemergence): 8
- Plant response rating, B. signalgrass ([7]; Rate 500 g/ha, Preemergence): 10
- Plant response rating, Blackgrass [8, 12]: 5
- Blackgrass plant response rating ([8]; Rate 62 g/ha, Postemergence): 4
- Blackgrass plant response rating ([8]; Rate 125 g/ha, Postemergence): 5
- Plant response rating, Blackgrass ([8]; Rate 125 g/ha, Preemergence): 6
- Plant response rating, Blackgrass ([8]; Rate 250 g/ha, Postemergence): 7
- Plant response rating, Blackgrass ([8]; Rate 250 g/ha, Preemergence): 6
- Plant response rating, Blackgrass ([8]; Rate 500 g/ha, Postemergence): 9
- Plant response rating, Blackgrass ([8]; Rate 500 g/ha, Preemergence): 9
- Plant response rating, Redroot pigweed [9, 12]: 9
- Redroot pigweed plant response rating ([9]; Rate 62 g/ha, Postemergence): 8
- Redroot pigweed plant response rating ([9]; Rate 125 g/ha, Postemergence): 9
- Plant response rating, Redroot pigweed ([9]; Rate 125 g/ha, Preemergence): 9
- Plant response rating, Redroot pigweed ([9]; Rate 250 g/ha, Postemergence): 10
- Plant response rating, Redroot pigweed ([9]; Rate 250 g/ha, Preemergence): 10
- Plant response rating, Redroot pigweed ([9]; Rate 500 g/ha, Postemergence): 10
- Plant response rating, Redroot pigweed ([9]; Rate 500 g/ha, Preemergence): 10
- Plant response rating, Wheat [10, 12]: 0
- Wheat plant response rating ([10]; Rate 62 g/ha, Postemergence): 2
- Wheat plant response rating ([10]; Rate 125 g/ha, Postemergence): 3
- Plant response rating, Wheat ([10]; Rate 125 g/ha, Preemergence): 0
- Plant response rating, Wheat ([10]; Rate 250 g/ha, Postemergence): 3
- Plant response rating, Wheat ([10]; Rate 250 g/ha, Preemergence): 1
- Plant response rating, Wheat ([10]; Rate 500 g/ha, Postemergence): 5
- Plant response rating, Wheat ([10]; Rate 500 g/ha, Preemergence): 2
- Plant response rating, Soybean (soybean (Glycine max); [12]): 0
- Soybean plant response rating (soybean (Glycine max); Rate 62 g/ha, Postemergence): 2
- Soybean plant response rating (soybean (Glycine max); Rate 125 g/ha, Postemergence): 3
- Plant response rating, Soybean (soybean (Glycine max); Rate 125 g/ha, Preemergence): 1
- Plant response rating, Soybean (soybean (Glycine max); Rate 250 g/ha, Postemergence): 5
- Plant response rating, Soybean (soybean (Glycine max); Rate 250 g/ha, Preemergence): 1
- Plant response rating, Soybean (soybean (Glycine max); Rate 500 g/ha, Postemergence): 6
- Plant response rating, Soybean (soybean (Glycine max); Rate 500 g/ha, Preemergence): 1
- Plant response rating, Giant foxtail [11, 12]: 1
- Giant foxtail plant response rating ([11]; Rate 62 g/ha, Postemergence): 1
- Giant foxtail plant response rating ([11]; Rate 125 g/ha, Postemergence): 3
- Plant response rating, Giant foxtail ([11]; Rate 125 g/ha, Preemergence): 2
- Plant response rating, Giant foxtail ([11]; Rate 250 g/ha, Postemergence): 4
- Plant response rating, Giant foxtail ([11]; Rate 250 g/ha, Preemergence): 5
- Plant response rating, Giant foxtail ([11]; Rate 500 g/ha, Postemergence): 5
- Plant response rating, Giant foxtail ([11]; Rate 500 g/ha, Preemergence): 6
